Reference: US20120088800A1, “2-(SUBSTITUTED) (ARYLMETHYL, ARYLOXY and ARYLTHIO))-N-(SUBSTITUTED PYRIDIN-2-YL)-2-(SUBSTITUTED ARYL) COMPOUNDS AS SUBTYPE-SELECTIVE MODULATORS OF SPHINGOSINE-1-PHOSPHATE-3 (S1P3) RECEPTORS” (ALLERGAN, INC., priority 2009, published 2012)
Where a name gives a salt, the structure may show the parent alone.

How the values were obtained:
Type in all cases: cell-based
S1P2 = target: T1, S1P2 (Homo sapiens, UniProt O95136); assay: FLIPR calcium assay, cells expressing S1P2 and a G-protein; conditions: fluo-4 calcium signal compared to sphingosine 1-phosphate
T1 construct: expressed in transfected cells
Description: (§1) Novel compounds having this general structure were synthesized and tested for sphingosine 1-phosphate receptor (S1P) activity using the FLIPR assay. Cells expressing the receptor of interest (S1P1, S1P2 or S1P3) and a G-protein (Gqi5 or G16) are loaded with fluo-4, a calcium sensitive dye. After removal of excess dye by washing, the cells are placed in the FLIPR TETRA instrument. Baseline fluorescence readings are taken prior to addition the compound to be tested. Agonists will trigger the receptor to interact with the G-protein, leading to an increase in intracellular calcium. The increase in intracellular calcium causes an increase in the fluorescence of the cells, due to the presence of fluo-4. This fluorescence increase is recorded by the FLIPR TETRA. After the calcium transient signal has decreased towards baseline, the standard agonist sphingosine 1-phosphate is added. If the test compound is an antagonist, an initial calcium signal will not be generated and the antagonist will prevent the generation of a calcium signal from sphingosine 1-phosphate. The level of fluorescence is compared to that of sphingosine 1-phosphate, and the EC50 or IC50 of the compound determined by curve fitting.

S1P3 = target: T2, S1P3 (Homo sapiens, UniProt Q99500); assay: FLIPR calcium assay, cells expressing S1P3 and a G-protein; conditions: for EC50: fluo-4 calcium signal compared to sphingosine 1-phosphate, antagonist mode; for FLIPR (% Antagonism) S1P3: value in parentheses below the EC50, antagonism of sphingosine 1-phosphate signal
T2 construct: expressed in transfected cells
Description: as §1

S1P1 = target: T3, S1P1 (Homo sapiens, UniProt P21453); assay: FLIPR calcium assay, cells expressing S1P1 and a G-protein; conditions: fluo-4 calcium signal compared to sphingosine 1-phosphate
T3 construct: expressed in transfected cells
Description: as §1

T2 sequence (Q99500 whole entry, species assumed): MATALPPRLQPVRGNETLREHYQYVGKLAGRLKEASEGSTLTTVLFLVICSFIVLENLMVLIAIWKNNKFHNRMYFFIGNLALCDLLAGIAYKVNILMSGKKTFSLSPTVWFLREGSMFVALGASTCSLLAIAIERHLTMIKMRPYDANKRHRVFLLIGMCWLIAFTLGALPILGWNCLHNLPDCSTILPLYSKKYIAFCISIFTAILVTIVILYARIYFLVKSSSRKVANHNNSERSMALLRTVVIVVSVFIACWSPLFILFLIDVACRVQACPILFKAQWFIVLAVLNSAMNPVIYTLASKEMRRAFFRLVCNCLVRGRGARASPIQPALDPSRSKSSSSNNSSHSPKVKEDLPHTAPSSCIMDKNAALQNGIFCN
T1 sequence (O95136 whole entry, species assumed): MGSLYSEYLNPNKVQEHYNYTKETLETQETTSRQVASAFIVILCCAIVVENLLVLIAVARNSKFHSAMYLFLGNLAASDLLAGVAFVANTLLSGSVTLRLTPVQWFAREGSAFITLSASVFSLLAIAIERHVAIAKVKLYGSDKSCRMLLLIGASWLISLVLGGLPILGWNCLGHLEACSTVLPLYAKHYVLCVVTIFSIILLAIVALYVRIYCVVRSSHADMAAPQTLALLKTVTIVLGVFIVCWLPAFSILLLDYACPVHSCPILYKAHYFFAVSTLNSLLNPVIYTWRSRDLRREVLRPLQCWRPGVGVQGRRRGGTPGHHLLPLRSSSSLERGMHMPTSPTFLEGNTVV
T3 sequence (P21453 whole entry, species assumed): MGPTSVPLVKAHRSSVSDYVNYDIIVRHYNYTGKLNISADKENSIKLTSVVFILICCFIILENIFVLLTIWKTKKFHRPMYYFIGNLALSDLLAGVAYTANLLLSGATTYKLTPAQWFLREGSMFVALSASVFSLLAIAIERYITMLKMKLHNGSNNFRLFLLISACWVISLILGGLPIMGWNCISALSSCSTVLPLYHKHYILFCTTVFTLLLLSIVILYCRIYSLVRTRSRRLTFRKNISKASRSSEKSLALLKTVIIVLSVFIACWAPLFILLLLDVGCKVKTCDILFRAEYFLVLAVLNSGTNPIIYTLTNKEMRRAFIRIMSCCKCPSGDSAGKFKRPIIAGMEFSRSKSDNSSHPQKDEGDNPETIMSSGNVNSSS

SMILES: Cl.O=C(Nc1ccc(Cl)cn1)C(Oc1ccc(Cl)cc1)c1ccc(Cl)cc1 (centres unmarked) [Example 9, 2-(4-chlorophenoxy)-2-(4-chlorophenyl)-N-(5-chloropyridin-2-yl)acetamide hydrochloride]
- EC50 (S1P2): > 8300 nM
- EC50 (S1P3): 27 nM
- FLIPR (% Antagonism) S1P3 (S1P3): (97) %
- EC50 (S1P1): > 8300 nM

SMILES: Cl.O=C(Nc1ccc(Br)cn1)C(Oc1ccc(Cl)cc1)c1ccc(Cl)cc1 (centres unmarked) [Example 8, N-(5-bromopyridin-2-yl)-2-(4-chlorophenoxy)-2-(4-chlorophenyl)acetamide hydrochloride]
- EC50 (S1P2): > 8300 nM
- EC50 (S1P3): 15 nM
- FLIPR (% Antagonism) S1P3 (S1P3): (97) %
- EC50 (S1P1): > 8300 nM

SMILES: Cc1ccc(SC(C(=O)Nc2ccc(Cl)cn2)c2ccc(Cl)cc2)cc1C (centres unmarked) [Example 15, 2-(4-chlorophenyl)-N-(5-chloropyridin-2-yl)-2-(3,4-dimethylphenylthio)acetamide hydrochloride]
- EC50 (S1P2): > 8300 nM
- EC50 (S1P3): 240 nM
- FLIPR (% Antagonism) S1P3 (S1P3): (98) %
- EC50 (S1P1): > 8300 nM

SMILES: O=C(Nc1ccc(Cl)cn1)C(Sc1cccc(Cl)c1)c1ccccc1 (centres unmarked) [Example 21, 2-(3-chlorophenylthio)-N-(5-chloropyridin-2-yl)-2-phenylacetamide hydrochloride]
- EC50 (S1P2): > 8300 nM
- EC50 (S1P3): 208 nM
- FLIPR (% Antagonism) S1P3 (S1P3): (97) %
- EC50 (S1P1): > 8300 nM

SMILES: Cc1ccc(SC(C(=O)Nc2ccc(Cl)cn2)c2ccc(Cl)cc2)cc1 (centres unmarked) [Example 17, 2-(4-chlorophenyl)-N-(5-chloropyridin-2-yl)-2-(p-tolylthio)acetamide hydrochloride]
- EC50 (S1P2): > 8300 nM
- EC50 (S1P3): 322 nM
- FLIPR (% Antagonism) S1P3 (S1P3): (99) %
- EC50 (S1P1): > 8300 nM

SMILES: COc1ccc(OC(C(=O)Nc2ccc(Cl)cn2)c2ccc(Cl)cc2)cc1.Cl (centres unmarked) [Example 3, 2-(4-chlorophenyl)-N-(5-chloropyridin-2-yl)-2-(4-methoxyphenoxy)acetamide hydrochloride]
- EC50 (S1P2): > 8300 nM
- EC50 (S1P3): 166 nM
- FLIPR (% Antagonism) S1P3 (S1P3): (98) %
- EC50 (S1P1): > 8300 nM

SMILES: N#Cc1ccc(NC(=O)C(Cc2ccccc2)c2ccccc2)nc1 (centres unmarked) [Example 34, N-(5-cyanopyridin-2-yl)-2,3-diphenylpropanamide hydrochloride]
- EC50 (S1P2): > 8300 nM
- EC50 (S1P3): 1500 nM
- FLIPR (% Antagonism) S1P3 (S1P3): (52) %
- EC50 (S1P1): > 8300 nM

SMILES: O=C(Nc1ccc(Cl)cn1)C(Sc1ccc(Cl)cc1)c1ccccc1 (centres unmarked) [Example 27, 2-(4-chlorophenylthio)-N-(5-chloropyridin-2-yl)-2-phenylacetamide]
- EC50 (S1P2): > 8300 nM
- EC50 (S1P3): 160 nM
- FLIPR (% Antagonism) S1P3 (S1P3): (101) %
- EC50 (S1P1): > 8300 nM

SMILES: O=C(Nc1ccc(Br)cn1)C(Sc1ccc(Cl)c(Cl)c1)c1ccccc1 (centres unmarked) [Example 18, N-(5-bromopyridin-2-yl)-2-(3,4-dichlorophenylthio)-2-phenylacetamide]
- EC50 (S1P2): > 8300 nM
- EC50 (S1P3): 133 nM
- FLIPR (% Antagonism) S1P3 (S1P3): (97) %
- EC50 (S1P1): > 8300 nM

SMILES: O=C(Nc1ccc(Cl)cn1)C(Sc1ccc(Br)cc1)c1ccccc1 (centres unmarked) [Example 24, 2-(4-bromophenylthio)-N-(5-chloropyridin-2-yl)-2-phenylacetamide]
- EC50 (S1P2): > 8300 nM
- EC50 (S1P3): 230 nM
- FLIPR (% Antagonism) S1P3 (S1P3): (99) %
- EC50 (S1P1): > 8300 nM

SMILES: O=C(Nc1ccc(Br)cn1)C(Sc1cccc(Cl)c1)c1ccccc1 (centres unmarked) [Example 20, N-(5-bromopyridin-2-yl)-2-(3-chlorophenylthio)-2-phenylacetamide hydrochloride]
- EC50 (S1P2): > 8300 nM
- EC50 (S1P3): 166 nM
- FLIPR (% Antagonism) S1P3 (S1P3): (97) %
- EC50 (S1P1): > 8300 nM

SMILES: O=C(Nc1ccc(Br)cn1)C(Cc1ccccc1)c1ccccc1 (centres unmarked) [Example 30, N-(5-bromopyridin-2-yl)-2,3-diphenylpropanamide hydrochloride]
- EC50 (S1P2): > 8300 nM
- EC50 (S1P3): 162 nM
- FLIPR (% Antagonism) S1P3 (S1P3): (100) %
- EC50 (S1P1): > 8300 nM

SMILES: O=C(Nc1ccc(Br)cn1)C(Sc1ccc(Br)cc1)c1ccccc1 (centres unmarked) [Example 25, 2-(4-bromophenylthio)-N-(5-bromopyridin-2-yl)-2-phenylacetamide]
- EC50 (S1P2): > 8300 nM
- EC50 (S1P3): 286 nM
- FLIPR (% Antagonism) S1P3 (S1P3): (99) %
- EC50 (S1P1): > 8300 nM

SMILES: O=C(Nc1ccc(Cl)cn1)C(Cc1ccccc1)c1ccccc1 (centres unmarked) [Example 29, N-(5-chloropyridin-2-yl)-2,3-diphenylpropanamide hydrochloride]
- EC50 (S1P2): > 8300 nM
- EC50 (S1P3): 198 nM
- FLIPR (% Antagonism) S1P3 (S1P3): (101) %
- EC50 (S1P1): > 8300 nM

SMILES: O=C(Nc1ccc(Cl)cn1)C(Sc1ccc(F)cc1)c1ccc(Cl)cc1 (centres unmarked) [Example 13, 2-(4-chlorophenyl)-N-(5-chloropyridin-2-yl)-2-(4-fluorophenylthio)acetamide hydrochloride]
- EC50 (S1P2): > 8300 nM
- EC50 (S1P3): 198 nM
- FLIPR (% Antagonism) S1P3 (S1P3): (99) %
- EC50 (S1P1): > 8300 nM

SMILES: Cl.O=C(Nc1ccc(F)cn1)C(Oc1ccc(Cl)cc1)c1ccc(Cl)cc1 (centres unmarked) [Example 7, 2-(4-chlorophenoxy)-2-(4-chlorophenyl)-N-(5-fluoropyridin-2-yl)acetamide hydrochloride]
- EC50 (S1P2): > 8300 nM
- EC50 (S1P3): 316 nM
- FLIPR (% Antagonism) S1P3 (S1P3): (97) %
- EC50 (S1P1): > 8300 nM

SMILES: Cc1ccc(OC(C(=O)Nc2ccc(Br)cn2)c2ccc(Cl)cc2)cc1.Cl (centres unmarked) [Example 2, N-(5-bromopyridin-2-yl)-2-(4-chlorophenyl)-2-(p-tolyloxy)acetamide hydrochloride]
- EC50 (S1P2): > 8300 nM
- EC50 (S1P3): 185 nM
- FLIPR (% Antagonism) S1P3 (S1P3): (100) %
- EC50 (S1P1): > 8300 nM

SMILES: Cc1nc(NC(=O)C(Cc2ccccc2)c2ccccc2)ccc1Br (centres unmarked) [Example 31, N-(5-bromo-6-methylpyridin-2-yl)-2,3-diphenylpropanamide hydrochloride]
- EC50 (S1P2): > 8300 nM
- EC50 (S1P3): 201 nM
- FLIPR (% Antagonism) S1P3 (S1P3): (100) %
- EC50 (S1P1): > 8300 nM

SMILES: Cc1ccc(NC(=O)C(Cc2ccccc2)c2ccccc2)nc1 (centres unmarked) [Example 32, N-(5-methylpyridin-2-yl)-2,3-diphenylpropanamide hydrochloride]
- EC50 (S1P2): > 8300 nM
- EC50 (S1P3): 725 nM
- FLIPR (% Antagonism) S1P3 (S1P3): (99) %
- EC50 (S1P1): > 8300 nM

SMILES: O=C(Nc1ccc(Cl)cn1)C(Sc1ccc(Cl)c(Cl)c1)c1ccccc1 (centres unmarked) [Example 19, N-(5-chloropyridin-2-yl)-2-(3,4-dichlorophenylthio)-2-phenylacetamide]
- EC50 (S1P2): > 8300 nM
- EC50 (S1P3): 106 nM
- FLIPR (% Antagonism) S1P3 (S1P3): (97) %
- EC50 (S1P1): > 8300 nM

SMILES: COc1ccc(SC(C(=O)Nc2ccc(Br)cn2)c2ccc(Cl)cc2)cc1.Cl (centres unmarked) [Example 11, N-(5-bromopyridin-2-yl)-2-(4-chlorophenyl)-2-(4-methoxyphenylthio)acetamide hydrochloride]
- EC50 (S1P2): > 8300 nM
- EC50 (S1P3): 361 nM
- FLIPR (% Antagonism) S1P3 (S1P3): (100) %
- EC50 (S1P1): > 8300 nM

SMILES: Cl.O=C(Nc1ccc(Br)cn1)C(Oc1ccc(Br)cc1)c1ccc(Cl)cc1 (centres unmarked) [Example 5, 2-(4-bromophenoxy)-N-(5-bromopyridin-2-yl)-2-(4-chlorophenyl)acetamide hydrochloride]
- EC50 (S1P2): > 8300 nM
- EC50 (S1P3): 90 nM
- FLIPR (% Antagonism) S1P3 (S1P3): (97) %
- EC50 (S1P1): > 8300 nM

SMILES: Cl.O=C(Nc1ccc(Cl)cn1)C(Oc1ccc(Br)cc1)c1ccc(Cl)cc1 (centres unmarked) [Example 6, 2-(4-bromophenoxy)-2-(4-chlorophenyl)-N-(5-chloropyridin-2-yl)acetamide hydrochloride]
- EC50 (S1P2): > 8300 nM
- EC50 (S1P3): 103 nM
- FLIPR (% Antagonism) S1P3 (S1P3): (97) %
- EC50 (S1P1): > 8300 nM

SMILES: O=C(Nc1ccc(Cl)cn1)C(Sc1ccc(Cl)cc1)c1ccc(Cl)cc1 (centres unmarked) [Example 23, 2-(4-chlorophenyl)-2-(4-chlorophenylthio)-N-(5-chloropyridin-2-yl)acetamide hydrochloride]
- EC50 (S1P2): > 8300 nM
- EC50 (S1P3): 173 nM
- FLIPR (% Antagonism) S1P3 (S1P3): (97) %
- EC50 (S1P1): > 8300 nM

SMILES: O=C(Nc1ccc(Cl)cn1)C(Sc1ccc(Cl)cc1)c1ccc(F)cc1 (centres unmarked) [Example 26, 2-(4-chlorophenylthio)-N-(5-chloropyridin-2-yl)-2-(4-fluorophenyl)acetamide]
- EC50 (S1P2): > 8300 nM
- EC50 (S1P3): 166 nM
- FLIPR (% Antagonism) S1P3 (S1P3): (102) %
- EC50 (S1P1): > 8300 nM

SMILES: Cl.O=C(Nc1ccc(F)cn1)C(Oc1ccc(Br)cc1)c1ccc(Cl)cc1 (centres unmarked) [Example 4, 2-(4-bromophenoxy)-2-(4-chlorophenyl)-N-(5-fluoropyridin-2-yl)acetamide hydrochloride]
- EC50 (S1P2): > 8300 nM
- EC50 (S1P3): 325 nM
- FLIPR (% Antagonism) S1P3 (S1P3): (97) %
- EC50 (S1P1): > 8300 nM

SMILES: O=C(Nc1ccc(Br)cn1)C(Sc1ccc(Cl)cc1)c1ccc(Cl)cc1 (centres unmarked) [Example 22, N-(5-bromopyridin-2-yl)-2-(4-chlorophenyl)-2-(4-chlorophenylthio)acetamide hydrochloride]
- EC50 (S1P2): > 8300 nM
- EC50 (S1P3): 104 nM
- FLIPR (% Antagonism) S1P3 (S1P3): (97) %
- EC50 (S1P1): > 8300 nM

SMILES: O=C(Nc1ccc(I)cn1)C(Sc1ccccc1)c1ccccc1 (centres unmarked) [Example 28, N-(5-iodopyridin-2-yl)-2-phenyl-2-(phenylthio)acetamide]
- EC50 (S1P2): > 8300 nM
- EC50 (S1P3): 310 nM
- FLIPR (% Antagonism) S1P3 (S1P3): (101) %
- EC50 (S1P1): > 8300 nM

SMILES: Cc1cc(OC(C(=O)Nc2ccc(Cl)cn2)c2ccc(Cl)cc2)ccc1Cl.Cl (centres unmarked) [Example 1, 2-(4-chloro-3-methylphenoxy)-2-(4-chlorophenyl)-N-(5-chloropyridin-2-yl)acetamide hydrochloride]
- EC50 (S1P2): > 8300 nM
- EC50 (S1P3): 128 nM
- FLIPR (% Antagonism) S1P3 (S1P3): (99) %
- EC50 (S1P1): > 8300 nM
